# Source: patent publication US20110201648A1, “POLY-HETEROARYL DERIVATIVES FOR THE TREATMENT OF CANCER” (INSTITUT CURIE, priority 2008, published 2011)
# Test system: ds17 (17 base-pair duplex-DNA)
# Experiment: Fluorescence titration with ds17
# Assay type: binding
# Conditions: 0.25 μM compound, cacodylate buffer + 100 mM KCl, λex=340 nm
# Description: The quadruplex-over duplex-selectivity is evaluated through fluorescence titrations by comparison of experiments carried out with 22AG (see above) and with a short duplex-DNA: ds17, which is a 17 base-pair duplex-DNA that represents a biological sequence used in previous studies (28); the sequences of the two complementary strands are the following: [5′-CCAGTTCGTAGTAACCC-3′]/[5′-GGGTTACTACGAACTGG-3′]. Duplex-structure is prepared by heating the two corresponding complementary strands at 90° C. for 5 min in a 10 mM sodium cacodylate buffer pH 7.3, 100 mM KCl followed by a slow cooling over 6 hrs. Concentrations are determined by UV-Vis measurements (after thermal denaturation, 5 min at 85° C.) at 260 nm before use.
smiles,measurement,value
"c1cc(-c2cnc(-c3cccc(-c4cnco4)n3)o2)nc(-c2cnc(-c3cccc(-c4cnco4)n3)o2)c1 [compound 3, 2,6-bis{2-[6-(oxazol-5-yl)pyridin-2-yl]oxazol-5-yl}pyridine]",fluorescence of compound upon addition of ds17,do not result in a progressive quench of the fluorescence
